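All cell lines were grown in 96-well plates and treated with compound for 48 hours. GI50 is the concentration that inhibits growth by half.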 Active and inactive are the calls of the source. No stated cut-off is given here; in the data, active = GI50 up to about 1.1 µM and inactive = higher.
Assays:
Experiment in all cases: NCI tumour cell line growth inhibition, 48 h
[1] = tested on: SF-295
[2] = tested on: Hs-578T
[3] = tested on: SF-268
[4] = tested on: SK-MEL-2
[5] = tested on: K562
[6] = tested on: SNB-75
[7] = tested on: LOX IMVI
[8] = tested on: OVCAR-8
[9] = tested on: EKVX
[10] = tested on: HCT-116
[11] = tested on: UACC-62
[12] = tested on: U-251
[13] = tested on: HT-29
[14] = tested on: NCI/ADR-RES
[15] = tested on: SF-539
[16] = tested on: A549
[17] = tested on: SR
[18] = tested on: SN12C
[19] = tested on: CAKI-1
[20] = tested on: UACC-257

Structure (SMILES)	GI50 [1]	GI50 [2]	GI50 [3]	GI50 [4]	GI50 [5]	GI50 [6]	GI50 [7]	GI50 [8]	GI50 [9]	GI50 [10]	GI50 [11]	GI50 [12]	GI50 [13]	GI50 [14]	GI50 [15]	GI50 [16]	GI50 [17]	GI50 [18]	GI50 [19]	GI50 [20]
NC1CCC(c2cc3ccccc3s2)(N2CCCCC2)CC1 (stereo not given)	2.64 µM (inactive)	4.11 µM (inactive)	3.57 µM (inactive)	1.55 µM (inactive)	1.63 µM (inactive)	10.5 µM (inactive)	1.51 µM (inactive)	1.72 µM (inactive)	1.41 µM (inactive)	1.69 µM (inactive)	2.47 µM (inactive)	1.53 µM (inactive)	1.21 µM (inactive)	1.19 µM (inactive)	2.06 µM (inactive)	1.77 µM (inactive)	1.54 µM (inactive)	1.67 µM (inactive)	2.57 µM (inactive)	1.62 µM (inactive)
N=C1C(=N)c2ccccc2-c2ccccc21	1.62 µM (inactive)	2.64 µM (inactive)	2.1 µM (inactive)	1.55 µM (inactive)	0.513 µM (active)	1.82 µM (inactive)	0.31 µM (active)	1.03 µM (active)	1.9 µM (inactive)	0.384 µM (active)	1.39 µM (inactive)	1.07 µM (active)	1.83 µM (inactive)	0.492 µM (active)	0.787 µM (active)	1.74 µM (inactive)	0.695 µM (active)	1.19 µM (inactive)	1.71 µM (inactive)	0.692 µM (active)
COC(=O)Cc1cc(O)c2c(c1O)C(=O)c1ccccc1C2=O	27.6 µM (inactive)	34 µM (inactive)	51.1 µM (inactive)	> 67.5 µM (inactive)	> 100 µM (inactive)	20.6 µM (inactive)	99.1 µM (inactive)	> 100 µM (inactive)	> 94.2 µM (inactive)	> 71 µM (inactive)	> 100 µM (inactive)	27.9 µM (inactive)	> 46.5 µM (inactive)	71.9 µM (inactive)	35.9 µM (inactive)	> 100 µM (inactive)	> 100 µM (inactive)	99.5 µM (inactive)	> 100 µM (inactive)	> 100 µM (inactive)
CCOC(=O)c1cn2c(n1)sc1cc(C)c(C)cc12	32 µM (inactive)	27.6 µM (inactive)	24 µM (inactive)	31.6 µM (inactive)	14.4 µM (inactive)	22.6 µM (inactive)	29.1 µM (inactive)	24.2 µM (inactive)	22.3 µM (inactive)	17.9 µM (inactive)	28.3 µM (inactive)	18.6 µM (inactive)	18 µM (inactive)	27.7 µM (inactive)	14.6 µM (inactive)	18.9 µM (inactive)	6.68 µM (inactive)	19.1 µM (inactive)	20.6 µM (inactive)	31.8 µM (inactive)
Oc1cccc2c(Br)ccnc12	1.46 µM (inactive)	8.55 µM (inactive)	0.767 µM (active)	11.4 µM (inactive)	0.593 µM (active)	7.59 µM (inactive)	0.713 µM (active)	1.22 µM (inactive)	2.88 µM (inactive)	1.4 µM (inactive)	1.47 µM (inactive)	2.28 µM (inactive)	5.4 µM (inactive)	2.08 µM (inactive)	3.63 µM (inactive)	4.34 µM (inactive)	0.378 µM (active)	3.62 µM (inactive)	12.3 µM (inactive)	2.48 µM (inactive)
COP(=O)(OC)C1=c2c(C)noc2=C2C=COC2C1=O (stereo not given)	> 100 µM (inactive)	45.9 µM (inactive)	> 100 µM (inactive)	> 100 µM (inactive)	> 100 µM (inactive)	94.6 µM (inactive)	> 100 µM (inactive)	> 100 µM (inactive)	> 100 µM (inactive)	> 100 µM (inactive)	> 100 µM (inactive)	> 100 µM (inactive)	> 100 µM (inactive)	> 100 µM (inactive)	> 100 µM (inactive)	> 100 µM (inactive)	> 100 µM (inactive)	> 100 µM (inactive)	> 100 µM (inactive)	> 100 µM (inactive)
O=C(O)c1ccc(C(=O)c2ccccc2C(=O)O)cc1C(=O)O	> 100 µM (inactive)	> 100 µM (inactive)	> 100 µM (inactive)	> 100 µM (inactive)	> 100 µM (inactive)	> 100 µM (inactive)	> 100 µM (inactive)	> 100 µM (inactive)	> 100 µM (inactive)	> 100 µM (inactive)	> 100 µM (inactive)	> 100 µM (inactive)	> 100 µM (inactive)	> 100 µM (inactive)	> 100 µM (inactive)	> 100 µM (inactive)	> 100 µM (inactive)	> 100 µM (inactive)	> 100 µM (inactive)	> 100 µM (inactive)
CN(C)[C@@H]1C(O)=C(C(=O)NCNc2nc3[nH]nnc3c(=O)[nH]2)C(=O)[C@@]2(O)C(O)=C3C(=O)c4c(O)cccc4[C@@](C)(O)[C@H]3C[C@@H]12	4.47 µM (inactive)	2 µM (inactive)	1.01 µM (active)	0.139 µM (active)	0.402 µM (active)	11.2 µM (inactive)	0.679 µM (active)	0.817 µM (active)	12.4 µM (inactive)	1.21 µM (inactive)	0.346 µM (active)	2.15 µM (inactive)	43.7 µM (inactive)	2.37 µM (inactive)	0.641 µM (active)	55.3 µM (inactive)	0.312 µM (active)	0.743 µM (active)	0.557 µM (active)	1.28 µM (inactive)
OC(CCNCc1ccccc1)c1ccc2ccccc2c1 (stereo not given)	33 µM (inactive)	20.6 µM (inactive)	18.9 µM (inactive)	20.5 µM (inactive)	21.6 µM (inactive)	28.2 µM (inactive)	13.5 µM (inactive)	23.3 µM (inactive)	34.8 µM (inactive)	22.4 µM (inactive)	19.3 µM (inactive)	16.9 µM (inactive)	22.9 µM (inactive)	24.7 µM (inactive)	16.9 µM (inactive)	19 µM (inactive)	35.6 µM (inactive)	29.1 µM (inactive)	21.8 µM (inactive)	18 µM (inactive)
O=C1CSC(=S)N1/N=C/c1ccc(Cl)c([N+](=O)[O-])c1	24.8 µM (inactive)	37.8 µM (inactive)	19.6 µM (inactive)	29.8 µM (inactive)	38.3 µM (inactive)	45 µM (inactive)	22.2 µM (inactive)	32.9 µM (inactive)	27.9 µM (inactive)	23 µM (inactive)	25.9 µM (inactive)	18.5 µM (inactive)	39.6 µM (inactive)	22.6 µM (inactive)	32.8 µM (inactive)	46.2 µM (inactive)	22.5 µM (inactive)	25.8 µM (inactive)	33.7 µM (inactive)	23.8 µM (inactive)
Cc1cc(N(C)c2ccccc2)nc(N(C)c2ccccc2)n1	20.2 µM (inactive)	26.8 µM (inactive)	54 µM (inactive)	15.8 µM (inactive)	49.9 µM (inactive)	41.1 µM (inactive)	13.3 µM (inactive)	33 µM (inactive)	36.1 µM (inactive)	19.6 µM (inactive)	28.6 µM (inactive)	30.7 µM (inactive)	17.9 µM (inactive)	58.3 µM (inactive)	27.1 µM (inactive)	27.5 µM (inactive)	27.7 µM (inactive)	46.8 µM (inactive)	> 100 µM (inactive)	25.4 µM (inactive)

From ChEMBL document CHEMBL1201862, “PubChem BioAssay data set” (2004)
